Key:
[1] = test system: Influenza A and B strains; test: microbe, parasite or virus in culture; format: cell-based; settings: in Gallus gallus, read-out: Anti-influenza Activity CE cells IC50,µM
[2] = test system: Influenza A and B strains; parameters: species or system Mice; settings: in vivo
[3] = test system: Respiratory Syncytial Virus (RSV); test: microbe, parasite or virus in culture; format: cell-based; settings: human respiratory syncytial virus, BSC-1; BS-C-1 cells (African Green Monkey kidney cells); plaque/foci reduction; read-out: Anti-respiratory syncytial virus BS-C-1 cells IC₅₀

## COc1nc(N)nc2c1ncn2[C@@H]1O[C@H](CO)[C@@H](O)[C@H]1F [Example 12, 2-Amino-9-(2-deoxy-2-fluoro-β-D-ribofuranosyl)-6-methoxy-9H-purine]
[1]
  IC50: 0.4 µM
[2]
  Anti-influenza Activity Mouse log10 reduction in virus titre. (Average of 5 Mice): +(1.9) log10
[3]
  IC50: 6.3 µM

## Nc1nc2c(ncn2[C@@H]2O[C@H](CO)[C@@H](O)[C@H]2F)c(=O)[nH]1 [Example 7, 9-(2-Deoxy-2-fluoro-β-D-ribofuranosyl)guanine]
[1]
  IC50: 0.8 to 2 µM
[2]
  Anti-influenza Activity Mouse log10 reduction in virus titre. (Average of 5 Mice): +(2.4) log10
[3]
  IC50: 26.2 µM

## Nc1nc(N)c2ncn([C@@H]3O[C@H](CO)[C@@H](O)[C@H]3F)c2n1 [Example 6, 2,6-Diamino-9-(2-deoxy-2-fluoro-β-D-ribofuranosyl)-9H-purine]
[1]
  IC50: 0.6 µM
[2]
  Anti-influenza Activity Mouse log10 reduction in virus titre. (Average of 5 Mice): +(2.1) log10

## Nc1ncnc2c1ncn2[C@@H]1O[C@H](CO)[C@@H](O)[C@H]1F [Example 8, 9-(2-Deoxy-2-fluoro-β-D-ribofuranosyl)adenine]
[1]
  IC50: 4 µM
[2]
  Anti-influenza Activity Mouse log10 reduction in virus titre. (Average of 5 Mice): +(2.3) log10

## Nc1ncc2ncn([C@@H]3O[C@H](CO)[C@@H](O)[C@H]3F)c2n1 [Example 9, 2-Amino-9-(2-deoxy-2-fluoro-β-D-ribofuranosyl)-9H-purine]
[2]
  Anti-influenza Activity Mouse log10 reduction in virus titre. (Average of 5 Mice): +(1.6) log10

Reference: patent publication EP0671410A1, “Antiviral compounds” (priority 1989, dated 1991)
